Each molecule was assayed against Induced myeloid leukemia cell differentiation protein Mcl-1 (Homo sapiens) (UniProt Q07820) (assay: Mcl-1/Noxa binding inhibitor potency, dose response, biochemical, TR-FRET (AID 1417)). Conditions: Mcl-1/Noxa peptide interaction, cell-free TR-FRET (terbium/rhodamine), 2 h; measured here: absolute IC50.
Sequence of Induced myeloid leukemia cell differentiation protein Mcl-1 (Homo sapiens) (Q07820 whole entry, looked up): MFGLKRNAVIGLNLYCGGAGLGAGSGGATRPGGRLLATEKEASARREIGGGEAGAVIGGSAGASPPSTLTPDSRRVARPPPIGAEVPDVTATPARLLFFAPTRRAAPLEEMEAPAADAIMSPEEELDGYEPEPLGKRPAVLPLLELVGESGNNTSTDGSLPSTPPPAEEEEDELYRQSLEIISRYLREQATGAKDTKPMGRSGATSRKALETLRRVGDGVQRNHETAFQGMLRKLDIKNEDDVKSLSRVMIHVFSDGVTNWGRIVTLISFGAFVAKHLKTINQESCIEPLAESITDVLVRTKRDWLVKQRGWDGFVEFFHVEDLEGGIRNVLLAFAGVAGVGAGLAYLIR

Compared with `CC(=O)c1sc2nc(CSc3nnnn3-c3ccccc3)[nH]c(=O)c2c1C`, `Cc1cccc(C)c1NC(=O)CSc1nnc(-c2ccco2)c(-c2ccco2)n1` is 2.1-fold higher in IC50: 0.93 µM for the first, 1.93 µM for the second. The first is the more potent here.

Going from `COc1cc(-c2nnc(SCc3cc(=O)oc4cc(O)c(O)cc34)o2)cc(OC)c1OC` to `COc1ccc(-c2csc(/C(C#N)=C\c3ccc(O)c([N+](=O)[O-])c3)n2)cc1OC`, the IC50 rises from < 0.4 µM to 4.75 µM. The first is the more potent here.

Going from `CCN(CC)c1ccc(NC(=O)Nc2ccc(C(C)=O)cc2)cc1` to `CC(=O)c1ccc(NC(=O)CC2Nc3cccc4cccc(c34)NC2=O)cc1` (stereo not drawn), the IC50 falls from > 54 µM to 3.62 µM. The second is the more potent here.

Going from `CC1(C)CC(=O)C(C=Nc2cccc(/N=C/C3=C(O)CC(C)(C)CC3=O)n2)=C(O)C1` to `Cc1cc(N=Cc2c(O)ccc3cc(Br)ccc23)no1`, the IC50 falls from > 54 µM to 53.5 µM. The second is the more potent here.

Compared with `Cc1ccc([N+](=O)[O-])cc1N=Nc1c(-c2ccc([N+](=O)[O-])cc2)[nH]n(C(N)=S)c1=O`, `COc1ccccc1C(=O)N=Nc1c(O)[nH]c2ccc([N+](=O)[O-])cc12` is higher in IC50: < 0.4 µM for the first, 4.72 µM for the second. The first is the more potent here.

Compared with `Cc1ccc(NC2=C(NC(=O)c3ccccc3)C(=O)c3ccccc3C2=O)cc1Cl`, `COc1ccccc1NC1=C(NC(C)=O)C(=O)c2ccccc2C1=O` is 1.6-fold lower in IC50: 3.9 µM for the first, 2.48 µM for the second.

Going from `CN(C)c1ccc(NC(=O)c2ccc(COc3cccc(Cl)c3)o2)cc1` to `CN(C)c1ccc(NS(=O)(=O)c2cccc(Cl)c2)cc1`, the IC50 rises from < 0.4 µM to > 54 µM.

`c1cncc(C2Nc3cccc4cccc(c34)N2)c1` and `c1coc(-c2nc3ccccc3nc2-c2ccco2)c1` are within 1.5-fold of each other in IC50: 7.27 µM for the first, 5.17 µM for the second.

Going from `O=C1NN(c2ccc(Cl)cc2)C(=O)/C1=C\c1ccc(-c2cccc(C(=O)O)c2)o1` to `O=C(O)c1cccc(-n2cccc2/C=C2/NC(=O)N(c3ccc(Cl)cc3)C2=O)c1`, the IC50 falls from 0.894 µM to < 0.4 µM. The second is the more potent here.

`Cc1nc(COC(=O)c2cc(O)c3ccccc3c2O)cs1` and `CC(=O)c1cc(O)c2ccccc2c1O` cannot be ordered by IC50: < 0.4 µM for the first, < 0.4 µM for the second.

Going from `O=C(/C=C/c1ccccc1)c1ccc(NC2=NCCCS2)cc1` to `CN(C)c1ccc(NC(=O)CCCc2ccccc2)cc1`, the IC50 rises from 6.52 µM to > 54 µM.

Compared with `O=C(Nc1ccc(S(=O)(=O)Nc2nccs2)cc1)c1cc(-c2ccncc2)nc2ccccc12`, `Cc1cc(C)c2oc(C(=O)Nc3ccc(S(=O)(=O)Nc4nccs4)cc3)cc(=O)c2c1` is higher in IC50: < 0.4 µM for the first, 4.58 µM for the second. The first is the more potent here.

`COc1ccccc1/C=C1/SC(=O)N(CCC(=O)Nc2ccc(S(=O)(=O)Nc3nccs3)cc2)C1=O` and `COc1cccc(C(=O)Nc2ccc3c(c2)C(=O)c2ccccc2C3=O)c1` are within 1.5-fold of each other in IC50: 2.85 µM for the first, 2.12 µM for the second.

Going from `O=C(ONc1ccc(N=NC(=O)c2ccccc2O)cc1)c1ccccc1` to `O=C(O)c1ccccc1/C=N/NC(=O)c1cc(-c2ccco2)nc2ccccc12`, the IC50 falls from 13 µM to < 0.4 µM.

First: COc1cc2c(-c3ccc(O)cc3)nc3c(c(C)nn3-c3ccccc3)c2cc1OC
Second: COc1ccc(Nc2cc(C)c3c(O)cccc3n2)cc1
The IC50 of the first is 6-fold lower: 1.19 µM for the first, 7.12 µM for the second.

`CC(C)c1ccc(S(=O)(=O)/N=C2/C=C(Sc3ncn[nH]3)C(=O)c3ccccc32)cc1` and `Cc1cc(C)c(S(=O)(=O)/N=C2/C=C(Sc3ncn[nH]3)C(=O)c3ccccc32)cc1C` cannot be ordered by IC50: < 0.4 µM for the first, < 0.4 µM for the second.

Going from `O=C(O)c1cc(-c2ccc(/C=C3/SC(=S)N(Cc4ccccc4)C3=O)o2)ccc1Cl` to `O=C1NN(c2ccc(Cl)c(Cl)c2)C(=O)/C1=C/c1cccc(OC(=O)c2cccs2)c1`, the IC50 rises from 1.51 µM to 4.13 µM (2.7-fold). The first is the more potent here.

Compared with `CCOC(=O)c1ccc2c(c1)C1C=CCC1C(C(=O)O)N2` (stereo not drawn), `COC(=O)c1c(NC(=O)Cc2cccs2)sc2c1CCCC2` is higher in IC50: < 0.4 µM for the first, 8.95 µM for the second. The first is the more potent here.

First: Nc1cc(C(=O)O)c(N)c2c1C(=O)c1ccccc1C2=O
Second: Nc1ccc(O)c2c1C(=O)c1ccccc1C2=O
The IC50 of the first is lower: < 0.4 µM for the first, 1.88 µM for the second. The first is the more potent here.

First: CNc1ccc(Br)cc(C(=O)/C=C/c2cccc(OC)c2)c1=O
Second: COc1ccc(NC(=O)CSc2ncnc3c2sc2ccccc23)c(OC)c1
The IC50 of the first is lower: 4.9 µM for the first, > 54 µM for the second. The first is the more potent here.

Compared with `O=C(NCc1ccco1)c1c2c(nc3ccccc13)CCC2`, `O=C(Nc1nccs1)c1cc(-c2ccco2)nc2ccccc12` is 2.8-fold lower in IC50: 3.96 µM for the first, 1.4 µM for the second. The second is the more potent here.

First: COc1ccc(-n2cccc2/C=C2\C(=N)N3N=C(c4ccco4)SC3=NC2=O)cc1
Second: CCc1nn2c(=O)cc(COc3ccc(/C=C4\C(=N)N5N=C(C)SC5=NC4=O)cc3)nc2s1
The IC50 of the first is lower: < 0.4 µM for the first, 3.78 µM for the second. The first is the more potent here.

Compared with `C/C=C\C=C/C(=O)Nc1cccc(C2=NOC3(C2)C[C@@H](C(N)=O)N(C(=O)c2ccccc2)C3)c1` (stereo partly drawn), `CC(=O)Nc1ccc(C(=O)Nc2cccc(-c3cnc4ccccc4n3)c2)cc1` is higher in IC50: 50.9 µM for the first, > 54 µM for the second.

First: CC(C)CCC(CCN1CCCC1)c1ccc2c(c1)OCO2 (stereo not drawn)
Second: CCOc1c(Cl)cc(CNc2ccc(N3CCCC3)cc2)cc1OC
The IC50 of the first is higher: > 54 µM for the first, 1.58 µM for the second. The second is the more potent here.

Compared with `Cc1ccc(-c2c3c([nH]c(=S)c2C#N)CCCC3)o1`, `Cc1ccc(/C=c2\sc3nc(-c4ccccc4Br)nn3c2=O)o1` is 3.7-fold higher in IC50: 1.17 µM for the first, 4.37 µM for the second.

Compared with `Cc1nnc(Sc2cc(NCCCO)c([N+](=O)[O-])c3nonc23)s1`, `Cc1cc(NC(=O)CSc2nc(-c3ccc(F)cc3)cs2)no1` is higher in IC50: 1.05 µM for the first, > 54 µM for the second.

First: CC(C)(C)c1cc(-c2csc(Nc3ccccc3)[n+]2Cc2ccc(C(=O)O)cc2)cc(C(C)(C)C)c1O
Second: O=c1oc2ccccc2cc1-c1csc(Nc2ccc(O)cc2)n1
The IC50 of the first is 1.8-fold higher: 1.32 µM for the first, 0.716 µM for the second.

`Cc1ccc(NC(=O)CN2C(=O)N/C(=C/c3cc(C)n(-c4ccc(C(=O)O)cc4)c3C)C2=O)cc1` and `Cc1ccc(-n2c(=O)c3cc4c(=O)n(-c5ccc(C)c(C)c5)c(=O)c4c(C(=O)c4ccc(C(=O)O)cc4)c3c2=O)cc1C` are within 1.5-fold of each other in IC50: 5.14 µM for the first, 4.28 µM for the second.

Going from `CCCSC1=N/C(=C\C=C\c2ccco2)C(=O)S1` to `CC(/C=C/c1ccco1)=N\NC(=O)c1cc(C)[nH]n1`, the IC50 rises from 3.1 µM to 5.64 µM (1.8-fold). The first is the more potent here.

Compared with `O=C(/C=C/c1ccc(Cl)c([N+](=O)[O-])c1)Nc1ccc(N2CCCC2)cc1`, `O=C(Nc1ccc(N2CCOCC2)cc1)Nc1ccc(Cl)c(Cl)c1` is higher in IC50: 8.3 µM for the first, > 54 µM for the second. The first is the more potent here.

Going from `COCCN(CCOC)S(=O)(=O)c1ccc(C(=O)Nc2c(C)n(C)n(-c3ccccc3)c2=O)cc1` to `CC(=O)Nc1ccc(C2=NNC(=Nc3cccc(S(=O)(=O)N(C)C)c3)SC2)cc1`, the IC50 falls from > 54 µM to 3.03 µM.

`O=C1C(=Cc2ccc(Br)o2)C(=O)c2ccccc21` and `O=C1C(Cl)=C(Nc2ccc3cn[nH]c3c2)C(=O)c2ccccc21` cannot be ordered by IC50: < 0.4 µM for the first, < 0.4 µM for the second.

`Cc1cc(C)c2nc(-c3ccccn3)cc(C(=O)Nc3ccc(S(=O)(=O)Nc4onc(C)c4C)cc3)c2c1` and `Cc1ccc(Cn2c(=N)c(C(=O)NCc3ccco3)cc3c(=O)n4ccccc4nc32)cc1` are within 1.5-fold of each other in IC50: 2.82 µM for the first, 3.6 µM for the second.

`Cc1ccccc1/C=N/Nc1ccnc2cc(Cl)ccc12` and `COc1cc(/C=N/Nc2nnc3c(n2)[nH]c2ccccc23)ccc1O` are within 1.5-fold of each other in IC50: 6.6 µM for the first, 5.83 µM for the second.

Compared with `Cc1[nH]c2ccccc2c1/C=C/c1nc2ccccc2c(=O)[nH]1`, `COc1cccc2c(=O)c3cccc(N)c3[nH]c12` is higher in IC50: 6.26 µM for the first, > 54 µM for the second. The first is the more potent here.

`c1ccc(Nc2cccc(Nc3ccccc3)c2)cc1` and `S=c1[nH]nc(-c2cc(-c3ccccc3)n[nH]2)n1/N=C/c1c2ccccc2cc2ccccc12` cannot be ordered by IC50: > 54 µM for the first, > 54 µM for the second.

Compared with `CC(C)(C)C1=CC=C(C(C)(C)C)C(=O)C1=O`, `Cc1cc(C)c(S(=O)(=O)NCc2cn3c(C)csc3n2)cc1C` is higher in IC50: < 0.4 µM for the first, > 54 µM for the second. The first is the more potent here.

`O=C(Cc1csc(N2CCOCC2)n1)N/N=C/c1ccc(O)c(O)c1O` and `CC(=O)C1=C(S(=O)(=O)c2ccc(C)cc2)CS(=O)(=O)C1` cannot be ordered by IC50: < 0.4 µM for the first, < 0.4 µM for the second.

Going from `O=[N+]([O-])c1ccc(-c2c[nH]c(=S)[nH]2)cc1` to `O=C1NC(=S)N/C1=C/c1cccn1-c1ccc([N+](=O)[O-])cc1`, the IC50 rises from 0.8 µM to > 54 µM.

— PubChem BioAssay AID1417 (Emory University Molecular Libraries Screening Center, 2008)
